In patent US20100099561A1, “HETEROBICYCLIC ALKYLTHIO-BRIDGED ISOXAZOLINES” (E.I. DU PONT DE NEMOURS AND COMPANY, priority 2008, published 2010):

What was measured:
Assay type in all cases: in vivo
[1] = system: barnyardgrass (Echinochloa crus-galli); assay: Test A preemergence, barnyardgrass; conditions: 0 to 100 scale (0 no effect, 100 complete control)
Source text: (§1) Seeds of barnyardgrass (Echinochloa crus-galli), large crabgrass (Digitaria sanguinalis), giant foxtail (Setaria faberi), morningglory (Ipomoea spp.), pigweed (Amaranthus retroflexus), velvetleaf (Abutilon theophrasti), wheat (Triticum aestivum), and corn (Zea mays) were planted into a blend of loam soil and sand and treated preemergence with a directed soil spray using test chemicals formulated in a non-phytotoxic solvent mixture which included a surfactant. At the same time these species were also treated with postemergence applications of test compounds formulated in the same manner. Plants ranged in height from two to ten cm and were in the one- to two-leaf stage for the postemergence treatment. Treated plants and untreated controls were maintained in a greenhouse for approximately ten days, after which time all treated plants were compared to untreated controls and visually evaluated for injury. Plant response ratings, summarized in Table A, are based on a 0 to 100 scale where 0 is no effect and 100 is complete control. A dash (-) response means no test result.

[2] = system: large crabgrass (Digitaria sanguinalis); assay: Test A preemergence, large crabgrass; conditions: 0 to 100 scale (0 no effect, 100 complete control)
Source text: as §1

[3] = system: giant foxtail (Setaria faberi); assay: Test A preemergence, giant foxtail; conditions: 0 to 100 scale (0 no effect, 100 complete control)
Source text: as §1

[4] = system: morningglory (Ipomoea spp.); assay: Test A preemergence, morningglory; conditions: 0 to 100 scale (0 no effect, 100 complete control)
Source text: as §1

[5] = system: pigweed (Amaranthus retroflexus); assay: Test A preemergence, pigweed; conditions: 0 to 100 scale (0 no effect, 100 complete control)
Source text: as §1

[6] = system: velvetleaf (Abutilon theophrasti); assay: Test A preemergence, velvetleaf; conditions: 0 to 100 scale (0 no effect, 100 complete control)
Source text: as §1

[7] = system: wheat (Triticum aestivum); assay: Test A preemergence, wheat; conditions: 0 to 100 scale (0 no effect, 100 complete control)
Source text: as §1

corn (Zea mays) [8] = assay: Test A preemergence, corn; conditions: 0 to 100 scale (0 no effect, 100 complete control)
Source text: as §1

[9] = system: barnyardgrass (Echinochloa crus-galli); assay: Test A postemergence, barnyardgrass; conditions: 0 to 100 scale (0 no effect, 100 complete control)
Source text: as §1

[10] = system: large crabgrass (Digitaria sanguinalis); assay: Test A postemergence, large crabgrass; conditions: 0 to 100 scale (0 no effect, 100 complete control)
Source text: as §1

[11] = system: giant foxtail (Setaria faberi); assay: Test A postemergence, giant foxtail; conditions: 0 to 100 scale (0 no effect, 100 complete control)
Source text: as §1

[12] = system: morningglory (Ipomoea spp.); assay: Test A postemergence, morningglory; conditions: 0 to 100 scale (0 no effect, 100 complete control)
Source text: as §1

[13] = system: pigweed (Amaranthus retroflexus); assay: Test A postemergence, pigweed; conditions: 0 to 100 scale (0 no effect, 100 complete control)
Source text: as §1

[14] = system: velvetleaf (Abutilon theophrasti); assay: Test A postemergence, velvetleaf; conditions: 0 to 100 scale (0 no effect, 100 complete control)
Source text: as §1

[15] = system: wheat (Triticum aestivum); assay: Test A postemergence, wheat; conditions: 0 to 100 scale (0 no effect, 100 complete control)
Source text: as §1

corn (Zea mays) [16] = assay: Test A postemergence, corn; conditions: 0 to 100 scale (0 no effect, 100 complete control)
Source text: as §1

rice (Oryza sativa) = assay: Test B flooded paddy test, rice; conditions: Flood, scale 0 to 100
Source text: (§2) Plant species in the flooded paddy test consisted of rice (Oryza sativa), umbrella sedge (Cyperus difformis), ducksalad (Heteranthera limosa) and barnyardgrass (Echinochloa crus-galli) grown to the 2-leaf stage for testing. At time of treatment, test pots were flooded to 3 cm above the soil surface, treated by application of test compounds directly to the paddy water, and then maintained at that water depth for the duration of the test. Treated plants and controls were maintained in a greenhouse for 13 to 15 days, after which time all species were compared to controls and visually evaluated. Plant response ratings, summarized in Table B, are based on a scale of 0 to 100 where 0 is no effect and 100 is complete control. A dash (-) response means no test result.

[17] = system: umbrella sedge (Cyperus difformis); assay: Test B flooded paddy test, umbrella sedge; conditions: Flood, scale 0 to 100
Source text: as §2

[18] = system: ducksalad (Heteranthera limosa); assay: Test B flooded paddy test, ducksalad; conditions: Flood, scale 0 to 100
Source text: as §2

[19] = system: barnyardgrass (Echinochloa crus-galli); assay: Test B flooded paddy test, barnyardgrass; conditions: Flood
Source text: as §2

CC1(C)CC([S+]([O-])Cc2c(C(F)(F)Cl)nc3n(c2=O)CCC3)=NO1 (stereo not drawn) [Compound 17]
Plant response rating, Barnyardgrass ([1]; 125 g ai/ha): 20
Plant response rating, Barnyardgrass ([1]; 500 g ai/ha): 60
Plant response rating, Crabgrass, Large ([2]; 125 g ai/ha): 40
Plant response rating, Crabgrass, Large ([2]; 500 g ai/ha): 80
Plant response rating, Foxtail, Giant ([3]; 125 g ai/ha): 30
Plant response rating, Foxtail, Giant ([3]; 500 g ai/ha): 80
Plant response rating, Morningglory ([4]; 125 g ai/ha): 0
Plant response rating, Morningglory ([4]; 500 g ai/ha): 0
Plant response rating, Pigweed ([5]; 125 g ai/ha): 0
Plant response rating, Pigweed ([5]; 500 g ai/ha): 0
Plant response rating, Velvetleaf ([6]; 125 g ai/ha): 0
Plant response rating, Velvetleaf ([6]; 500 g ai/ha): 0
Plant response rating, Wheat ([7]; 125 g ai/ha): 0
Plant response rating, Wheat ([7]; 500 g ai/ha): 0
Plant response rating, Corn (corn (Zea mays) [8]; 125 g ai/ha): 0
Plant response rating, Corn (corn (Zea mays) [8]; 500 g ai/ha): 0
Plant response rating, Barnyardgrass ([9]; 125 g ai/ha): 0
Plant response rating, Barnyardgrass ([9]; 500 g ai/ha): 60
Plant response rating, Crabgrass, Large ([10]; 125 g ai/ha): 20
Plant response rating, Crabgrass, Large ([10]; 500 g ai/ha): 50
Plant response rating, Foxtail, Giant ([11]; 125 g ai/ha): 30
Plant response rating, Foxtail, Giant ([11]; 500 g ai/ha): 60
Plant response rating, Morningglory ([12]; 125 g ai/ha): 0
Plant response rating, Morningglory ([12]; 500 g ai/ha): 0
Plant response rating, Pigweed ([13]; 125 g ai/ha): 0
Plant response rating, Pigweed ([13]; 500 g ai/ha): 10
Plant response rating, Velvetleaf ([14]; 125 g ai/ha): 0
Plant response rating, Velvetleaf ([14]; 500 g ai/ha): 10
Plant response rating, Wheat ([15]; 125 g ai/ha): 0
Plant response rating, Wheat ([15]; 500 g ai/ha): 20
Plant response rating, Corn (corn (Zea mays) [16]; 125 g ai/ha): 0
Plant response rating, Corn (corn (Zea mays) [16]; 500 g ai/ha): 0
Plant response rating, Rice (rice (Oryza sativa); 31 g ai/ha): 0
Plant response rating, Rice (rice (Oryza sativa); 62 g ai/ha): 0
Plant response rating, Rice (rice (Oryza sativa); 125 g ai/ha): 0
Plant response rating, Rice (rice (Oryza sativa); 250 g ai/ha): 0
Plant response rating, Sedge, Umbrella ([17]; 31 g ai/ha): 0
Plant response rating, Sedge, Umbrella ([17]; 62 g ai/ha): 0
Plant response rating, Sedge, Umbrella ([17]; 125 g ai/ha): 0
Plant response rating, Sedge, Umbrella ([17]; 250 g ai/ha): 0
Plant response rating, Ducksalad ([18]; 31 g ai/ha): 0
Plant response rating, Ducksalad ([18]; 62 g ai/ha): 0
Plant response rating, Ducksalad ([18]; 125 g ai/ha): 0
Plant response rating, Ducksalad ([18]; 250 g ai/ha): 0
Plant response rating, Barnyardgrass ([19]; 31 g ai/ha, scale 0 to 100): 0
Plant response rating, Barnyardgrass ([19]; 62 g ai/ha, scale 0 to 100): 0
Plant response rating, Barnyardgrass ([19]; 125 g ai/ha, scale 0 to 100): 0
Plant response rating, Barnyardgrass ([19]; 250 g ai/ha, scale 0 to 100 (0 no effect, 100 complete control)): 0
